Measured values reported in paper PMC11851430, “Workflow for E3 Ligase Ligand Validation for PROTAC Development” (ACS Chemical Biology, 2025).

What was measured:
Assay in all cases: DSF assay
Type in all cases: binding
Conditions in all cases: 20 µM compound
[1] = molecular target: T1, CAMK2BA (Homo sapiens, UniProt Q13554)
T1 construct: purchased in-house DSF panel (SGC-style construct names; the trailing A/B is a construct suffix)

[2] = molecular target: T2, MAPK1A (Homo sapiens, UniProt P28482)
T2 construct: purchased in-house DSF panel (SGC-style construct names; the trailing A/B is a construct suffix)
T2 sequence (P28482 whole entry): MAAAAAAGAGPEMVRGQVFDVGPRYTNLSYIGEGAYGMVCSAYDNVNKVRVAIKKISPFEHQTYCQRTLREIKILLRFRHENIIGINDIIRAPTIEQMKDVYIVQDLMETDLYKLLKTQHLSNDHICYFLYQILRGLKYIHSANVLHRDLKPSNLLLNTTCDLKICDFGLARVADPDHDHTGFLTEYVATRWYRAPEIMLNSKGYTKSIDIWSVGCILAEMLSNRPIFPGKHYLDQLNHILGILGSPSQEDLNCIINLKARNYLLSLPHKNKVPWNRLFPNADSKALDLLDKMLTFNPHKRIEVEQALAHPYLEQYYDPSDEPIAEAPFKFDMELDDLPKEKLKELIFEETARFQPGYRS

[3] = molecular target: T3, RIOK2A (Homo sapiens, UniProt Q9BVS4)
T3 construct: purchased in-house DSF panel (SGC-style construct names; the trailing A/B is a construct suffix)
T3 sequence (Q9BVS4 whole entry): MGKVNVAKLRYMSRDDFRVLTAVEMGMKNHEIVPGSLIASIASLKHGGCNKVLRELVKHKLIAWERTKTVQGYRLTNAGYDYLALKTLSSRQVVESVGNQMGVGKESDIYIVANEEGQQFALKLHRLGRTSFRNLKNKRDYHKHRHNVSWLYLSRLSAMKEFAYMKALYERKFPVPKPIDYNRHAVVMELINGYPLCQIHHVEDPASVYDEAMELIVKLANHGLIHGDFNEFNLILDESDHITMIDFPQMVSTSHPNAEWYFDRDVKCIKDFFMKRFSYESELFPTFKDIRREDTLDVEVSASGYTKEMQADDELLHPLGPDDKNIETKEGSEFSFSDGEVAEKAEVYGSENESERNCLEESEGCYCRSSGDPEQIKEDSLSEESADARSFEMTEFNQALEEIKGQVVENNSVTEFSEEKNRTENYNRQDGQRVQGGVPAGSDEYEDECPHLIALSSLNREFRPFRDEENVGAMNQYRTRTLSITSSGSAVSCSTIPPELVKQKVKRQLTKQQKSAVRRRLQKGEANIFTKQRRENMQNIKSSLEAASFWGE

[4] = molecular target: T4, OSR1A (Homo sapiens, UniProt O95747)
T4 construct: purchased in-house DSF panel (SGC-style construct names; the trailing A/B is a construct suffix)
T4 sequence (O95747 17-291): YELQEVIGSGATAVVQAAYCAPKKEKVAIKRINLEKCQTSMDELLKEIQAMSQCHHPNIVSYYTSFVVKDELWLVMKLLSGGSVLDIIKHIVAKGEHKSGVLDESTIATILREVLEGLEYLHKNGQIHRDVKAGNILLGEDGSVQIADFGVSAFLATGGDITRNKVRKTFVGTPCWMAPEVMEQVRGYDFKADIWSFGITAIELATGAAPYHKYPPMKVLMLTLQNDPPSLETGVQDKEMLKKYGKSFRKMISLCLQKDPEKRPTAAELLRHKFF

[5] = molecular target: T5, MERTKA (Homo sapiens, UniProt Q12866)
T5 construct: purchased in-house DSF panel (SGC-style construct names; the trailing A/B is a construct suffix)
T5 sequence (Q12866 574-864): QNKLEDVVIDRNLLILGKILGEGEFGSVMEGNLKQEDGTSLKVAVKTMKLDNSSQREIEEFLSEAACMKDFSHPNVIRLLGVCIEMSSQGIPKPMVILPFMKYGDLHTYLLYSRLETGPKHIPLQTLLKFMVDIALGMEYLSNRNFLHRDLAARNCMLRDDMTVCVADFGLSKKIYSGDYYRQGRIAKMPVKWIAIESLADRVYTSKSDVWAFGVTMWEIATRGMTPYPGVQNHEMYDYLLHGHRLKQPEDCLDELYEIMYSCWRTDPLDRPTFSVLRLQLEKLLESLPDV

[6] = molecular target: T6, CDK2A (Homo sapiens, UniProt P24941)
T6 construct: purchased in-house DSF panel (SGC-style construct names; the trailing A/B is a construct suffix)

[7] = molecular target: T7, MAPK14A (Homo sapiens, UniProt Q16539)
T7 construct: purchased in-house DSF panel (SGC-style construct names; the trailing A/B is a construct suffix)
T7 sequence (Q16539 whole entry): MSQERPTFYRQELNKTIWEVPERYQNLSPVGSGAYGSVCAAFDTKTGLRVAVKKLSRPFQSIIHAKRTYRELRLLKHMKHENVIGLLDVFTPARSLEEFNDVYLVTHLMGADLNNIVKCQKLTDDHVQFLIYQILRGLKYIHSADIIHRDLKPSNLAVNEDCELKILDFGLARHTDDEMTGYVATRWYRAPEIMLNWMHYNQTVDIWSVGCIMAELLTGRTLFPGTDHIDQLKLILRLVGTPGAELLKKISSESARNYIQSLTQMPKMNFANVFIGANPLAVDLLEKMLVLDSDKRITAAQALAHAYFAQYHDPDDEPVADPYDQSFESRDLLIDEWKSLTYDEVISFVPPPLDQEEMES

[8] = molecular target: T8, MELKA (Homo sapiens, UniProt Q14680)
T8 construct: purchased in-house DSF panel (SGC-style construct names; the trailing A/B is a construct suffix)
T8 sequence (Q14680 1-340): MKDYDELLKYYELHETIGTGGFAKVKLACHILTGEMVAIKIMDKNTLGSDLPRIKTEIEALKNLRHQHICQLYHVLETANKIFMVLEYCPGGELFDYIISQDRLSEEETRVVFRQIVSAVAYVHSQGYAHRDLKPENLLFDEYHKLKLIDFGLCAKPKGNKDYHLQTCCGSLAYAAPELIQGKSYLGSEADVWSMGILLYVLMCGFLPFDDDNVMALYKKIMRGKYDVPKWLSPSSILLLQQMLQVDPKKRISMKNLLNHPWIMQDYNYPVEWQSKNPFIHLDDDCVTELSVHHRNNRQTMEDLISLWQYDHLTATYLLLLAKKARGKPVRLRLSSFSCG

[9] = molecular target: T9, FGFR2A (Homo sapiens, UniProt P21802)
T9 construct: purchased in-house DSF panel (SGC-style construct names; the trailing A/B is a construct suffix)
T9 sequence (P21802 458-770): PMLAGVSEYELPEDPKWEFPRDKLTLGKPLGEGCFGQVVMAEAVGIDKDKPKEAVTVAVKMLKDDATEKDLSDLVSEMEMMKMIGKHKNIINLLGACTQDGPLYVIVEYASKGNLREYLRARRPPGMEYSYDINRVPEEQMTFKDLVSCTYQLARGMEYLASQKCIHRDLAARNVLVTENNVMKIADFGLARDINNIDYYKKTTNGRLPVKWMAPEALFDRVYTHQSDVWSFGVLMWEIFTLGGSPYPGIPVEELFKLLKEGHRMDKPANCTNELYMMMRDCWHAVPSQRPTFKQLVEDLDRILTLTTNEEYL

[10] = molecular target: T10, CDKL1A (Homo sapiens, UniProt Q00532)
T10 construct: purchased in-house DSF panel (SGC-style construct names; the trailing A/B is a construct suffix)
T10 sequence (Q00532 1-303): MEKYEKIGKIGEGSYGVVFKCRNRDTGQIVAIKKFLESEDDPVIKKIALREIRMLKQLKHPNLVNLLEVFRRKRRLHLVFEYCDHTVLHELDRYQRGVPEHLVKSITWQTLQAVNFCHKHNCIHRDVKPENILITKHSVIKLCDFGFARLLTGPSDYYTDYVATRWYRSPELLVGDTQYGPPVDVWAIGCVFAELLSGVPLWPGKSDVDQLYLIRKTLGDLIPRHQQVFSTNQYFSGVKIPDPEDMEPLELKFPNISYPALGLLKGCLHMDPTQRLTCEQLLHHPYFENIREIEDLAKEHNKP

[11] = molecular target: T11, DYRK2A (Homo sapiens, UniProt Q92630)
T11 construct: purchased in-house DSF panel (SGC-style construct names; the trailing A/B is a construct suffix)
T11 sequence (Q92630 146-552): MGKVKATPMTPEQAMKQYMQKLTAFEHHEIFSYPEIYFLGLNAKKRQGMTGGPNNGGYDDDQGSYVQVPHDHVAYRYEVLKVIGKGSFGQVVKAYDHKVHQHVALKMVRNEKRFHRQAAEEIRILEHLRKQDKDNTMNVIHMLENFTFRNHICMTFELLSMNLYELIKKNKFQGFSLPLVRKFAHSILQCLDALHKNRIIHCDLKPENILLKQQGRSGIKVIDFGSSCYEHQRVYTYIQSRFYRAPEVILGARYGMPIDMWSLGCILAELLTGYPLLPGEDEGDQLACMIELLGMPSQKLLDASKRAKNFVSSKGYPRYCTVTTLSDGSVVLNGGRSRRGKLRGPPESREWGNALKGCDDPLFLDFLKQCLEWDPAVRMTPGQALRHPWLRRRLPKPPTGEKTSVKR

[12] = molecular target: T12, MAP2K6A (Homo sapiens, UniProt P52564)
T12 construct: purchased in-house DSF panel (SGC-style construct names; the trailing A/B is a construct suffix)
T12 sequence (P52564 1-334): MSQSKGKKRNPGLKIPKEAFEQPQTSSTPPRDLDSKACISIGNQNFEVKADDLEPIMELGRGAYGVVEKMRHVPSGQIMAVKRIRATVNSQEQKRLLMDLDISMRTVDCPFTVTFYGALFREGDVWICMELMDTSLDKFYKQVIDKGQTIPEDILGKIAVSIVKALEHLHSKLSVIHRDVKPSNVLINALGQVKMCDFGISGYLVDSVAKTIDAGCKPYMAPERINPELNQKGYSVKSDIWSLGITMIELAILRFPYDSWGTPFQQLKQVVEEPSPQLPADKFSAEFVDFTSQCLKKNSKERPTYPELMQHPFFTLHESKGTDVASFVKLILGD

[13] = molecular target: T13, CAMKK2B (Homo sapiens, UniProt Q96RR4)
T13 construct: purchased in-house DSF panel (SGC-style construct names; the trailing A/B is a construct suffix)
T13 sequence (Q96RR4 161-449): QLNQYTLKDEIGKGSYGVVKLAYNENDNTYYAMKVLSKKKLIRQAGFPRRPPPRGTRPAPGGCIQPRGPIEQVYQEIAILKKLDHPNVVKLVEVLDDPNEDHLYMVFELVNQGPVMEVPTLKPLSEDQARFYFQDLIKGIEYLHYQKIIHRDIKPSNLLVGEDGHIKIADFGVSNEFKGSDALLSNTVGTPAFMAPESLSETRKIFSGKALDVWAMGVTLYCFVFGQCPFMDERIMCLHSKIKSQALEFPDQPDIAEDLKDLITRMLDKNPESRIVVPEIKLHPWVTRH

[14] = molecular target: T14, MST3A (Homo sapiens, UniProt Q9Y6E0)
T14 construct: purchased in-house DSF panel (SGC-style construct names; the trailing A/B is a construct suffix)
T14 sequence (Q9Y6E0 4-301): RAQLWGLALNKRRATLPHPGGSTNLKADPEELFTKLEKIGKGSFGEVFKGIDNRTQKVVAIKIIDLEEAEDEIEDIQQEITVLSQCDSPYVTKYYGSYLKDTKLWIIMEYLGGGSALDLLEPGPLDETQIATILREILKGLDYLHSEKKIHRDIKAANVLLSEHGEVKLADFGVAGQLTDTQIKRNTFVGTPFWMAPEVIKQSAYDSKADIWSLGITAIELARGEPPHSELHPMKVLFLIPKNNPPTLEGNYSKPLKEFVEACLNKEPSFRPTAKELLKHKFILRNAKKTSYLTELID

[15] = molecular target: T15, CAMK1DA (Homo sapiens, UniProt Q8IU85)
T15 construct: purchased in-house DSF panel (SGC-style construct names; the trailing A/B is a construct suffix)
T15 sequence (Q8IU85 whole entry): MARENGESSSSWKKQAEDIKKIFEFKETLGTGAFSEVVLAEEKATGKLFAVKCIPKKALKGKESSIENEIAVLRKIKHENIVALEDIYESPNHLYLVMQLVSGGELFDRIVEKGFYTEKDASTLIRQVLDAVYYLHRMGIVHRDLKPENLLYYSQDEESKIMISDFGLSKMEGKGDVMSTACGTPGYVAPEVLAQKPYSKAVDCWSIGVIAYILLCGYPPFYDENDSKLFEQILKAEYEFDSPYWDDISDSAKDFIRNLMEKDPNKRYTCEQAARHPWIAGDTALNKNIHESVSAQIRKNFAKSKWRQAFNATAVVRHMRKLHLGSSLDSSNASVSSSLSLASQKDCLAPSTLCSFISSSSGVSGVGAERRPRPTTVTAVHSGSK

[16] = molecular target: T16, NEK7A (Homo sapiens, UniProt Q8TDX7)
T16 construct: purchased in-house DSF panel (SGC-style construct names; the trailing A/B is a construct suffix)
T16 sequence (Q8TDX7 34-299): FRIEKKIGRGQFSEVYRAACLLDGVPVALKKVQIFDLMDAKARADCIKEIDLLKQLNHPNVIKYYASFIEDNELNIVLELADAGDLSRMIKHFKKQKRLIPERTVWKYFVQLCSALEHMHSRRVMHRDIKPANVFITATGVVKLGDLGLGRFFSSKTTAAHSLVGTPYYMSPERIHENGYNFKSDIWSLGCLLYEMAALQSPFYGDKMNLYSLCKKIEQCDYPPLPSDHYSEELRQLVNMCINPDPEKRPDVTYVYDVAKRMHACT

[17] = molecular target: T17, STK4A (Homo sapiens, UniProt Q13043)
T17 construct: purchased in-house DSF panel (SGC-style construct names; the trailing A/B is a construct suffix)
T17 sequence (Q13043 1-311): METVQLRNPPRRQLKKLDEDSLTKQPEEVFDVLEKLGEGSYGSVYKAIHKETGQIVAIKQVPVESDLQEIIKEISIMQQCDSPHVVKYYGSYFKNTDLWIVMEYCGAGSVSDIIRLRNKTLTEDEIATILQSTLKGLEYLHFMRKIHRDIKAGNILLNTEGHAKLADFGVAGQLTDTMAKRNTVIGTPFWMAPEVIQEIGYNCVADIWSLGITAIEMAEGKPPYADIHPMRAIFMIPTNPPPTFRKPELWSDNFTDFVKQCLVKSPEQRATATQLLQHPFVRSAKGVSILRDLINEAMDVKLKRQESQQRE

T1 sequence (Q13554 11-303): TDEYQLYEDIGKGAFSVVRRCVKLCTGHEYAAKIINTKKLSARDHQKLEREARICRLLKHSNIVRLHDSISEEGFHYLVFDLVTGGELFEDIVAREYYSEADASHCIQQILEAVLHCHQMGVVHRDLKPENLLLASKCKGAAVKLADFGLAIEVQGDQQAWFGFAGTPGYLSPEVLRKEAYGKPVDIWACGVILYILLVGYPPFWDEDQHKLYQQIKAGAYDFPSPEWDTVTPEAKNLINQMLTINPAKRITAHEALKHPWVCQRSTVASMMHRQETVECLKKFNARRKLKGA

| Compound | ΔTm at 20 µM [1] | ΔTm at 20 µM [2] | ΔTm at 20 µM [3] | ΔTm at 20 µM [4] | ΔTm at 20 µM [5] | ΔTm at 20 µM [6] | ΔTm at 20 µM [7] | ΔTm at 20 µM [8] | ΔTm at 20 µM [9] | ΔTm at 20 µM [10] | ΔTm at 20 µM [11] | ΔTm at 20 µM [12] | ΔTm at 20 µM [13] | ΔTm at 20 µM [14] | ΔTm at 20 µM [15] | ΔTm at 20 µM [16] | ΔTm at 20 µM [17] |
| --- | --- | --- | --- | --- | --- | --- | --- | --- | --- | --- | --- | --- | --- | --- | --- | --- | --- |
| CCOC(=O)c1cc(Nc2cc(C3CC3)[nH]n2)nc(Nc2ccc(CC#N)cc2)n1 [compound 5] | 1.15 °C | 4.85 °C | 6.53 °C | 3.5 °C | 2.06 °C | 12.5 °C | 0.11 °C | 9.78 °C | 6.36 °C | 6.89 °C | 7.58 °C | 8.41 °C | 9.77 °C | 7.56 °C | 3.94 °C | 0.0755 °C | 8.99 °C |
| CC(C)(C)OC(=O)NCCCOCCOCCOCCCNC(=O)c1cc(Nc2cc(C3CC3)[nH]n2)nc(Nc2ccc(CC#N)cc2)n1 [5-L] | 0.97 °C | 4.69 °C | 5.03 °C | 3.94 °C | 2.15 °C | 7.86 °C | 0.52 °C | 8.44 °C | 3.37 °C | 6.41 °C | 7.69 °C | 5.96 °C | 10.7 °C | 3.47 °C | 3.86 °C | 0.5 °C | 7.44 °C |
| CC(C)(C)OC(=O)NCCOCCOCCOCCOCCC(=O)N1CCN(c2cc(Nc3cc(C4CC4)[nH]n3)nc(Nc3ccc(CC#N)cc3)n2)CC1 [4-L] | -0.09 °C | 3.2 °C | 6.13 °C | 3.71 °C | 4.52 °C | 7.79 °C | 0.05 °C | 10.1 °C | 7.61 °C | 6.63 °C | 7.18 °C | 5.77 °C | 15.4 °C | 8.31 °C | 2.24 °C | 0.39 °C | 9.02 °C |
